# Data: ChEMBL document CHEMBL4616632, “Discovery of Cyclic Boronic Acid QPX7728, an Ultrabroad-Spectrum Inhibitor of Serine and Metallo-β-lactamases” (J Med Chem, 2020)
# System: Klebsiella pneumoniae
# Assay: Inhibition of Klebsiella pneumoniae KP1009 CTX-M-15 assessed as minimum concentration of compound required to reduce the MIC of aztreonam to 4 ug/ml
row,Compound,MEC [µg/mL]
1,O=C(O)c1cccc2c1OB(O)[C@@H](OC1CNC1)C2,> 20
2,O=C(O)c1c(F)ccc2c1OB(O)CC2,0.6
3,NC(=O)CS[C@H]1Cc2cccc(C(=O)O)c2OB1O,> 10
4,O=C(O)c1nccc2c1OB(O)CC2,2.5

# The next lines start with the values.
row,MEC [µg/mL],Compound
1,20,COCCOc1ccc2c(c1C(=O)O)OB(O)[C@@H](Sc1nncs1)C2
2,> 20,CSCCOc1ccc2c(c1C(=O)O)OB(O)[C@@H](Sc1nncs1)C2
3,> 20,O=C(O)c1c(OCC2CC2)ccc2c1OB(O)[C@@H](Sc1nncs1)C2
4,20,O=C(O)c1c(OCc2nncs2)ccc2c1OB(O)[C@@H](Sc1nncs1)C2

# System: Escherichia coli
# Assay: Inhibition of Escherichia coli KP308 SHV-5 assessed as minimum concentration of compound required to reduce the MIC of aztreonam to 4 ug/ml
row,Compound,MEC [µg/mL]
1,O=C(O)c1cccc2c1OB(O)[C@@H](OC1CNC1)C2,> 20
2,NC(=O)CS[C@H]1Cc2cccc(C(=O)O)c2OB1O,> 10

# Now from value to molecule:
row,MEC [µg/mL],Compound
1,10,COCCOc1ccc2c(c1C(=O)O)OB(O)[C@@H](Sc1nncs1)C2
2,10,CSCCOc1ccc2c(c1C(=O)O)OB(O)[C@@H](Sc1nncs1)C2
3,10,O=C(O)c1c(OCC2CC2)ccc2c1OB(O)[C@@H](Sc1nncs1)C2
4,5,O=C(O)c1c(OCc2nncs2)ccc2c1OB(O)[C@@H](Sc1nncs1)C2

# System: Escherichia coli
# Assay: Inhibition of Escherichia coli EC302 TEM-10 assessed as minimum concentration of compound needed to reduce the MIC of aztreonam to 4 ug/ml
row,Compound,MEC [µg/mL]
1,O=C(O)c1cccc2c1OB(O)[C@@H](OC1CNC1)C2,> 20
2,NC(=O)CS[C@H]1Cc2cccc(C(=O)O)c2OB1O,> 10

# Continued, values first:
row,MEC [µg/mL],Compound
1,> 20,COCCOc1ccc2c(c1C(=O)O)OB(O)[C@@H](Sc1nncs1)C2
2,> 20,CSCCOc1ccc2c(c1C(=O)O)OB(O)[C@@H](Sc1nncs1)C2
3,20,O=C(O)c1c(OCC2CC2)ccc2c1OB(O)[C@@H](Sc1nncs1)C2
4,5,O=C(O)c1c(OCc2nncs2)ccc2c1OB(O)[C@@H](Sc1nncs1)C2

# Biological target: Beta-lactamase (Klebsiella pneumoniae) (UniProt Q93LQ9)
# Sequence (Q93LQ9 as listed by the source): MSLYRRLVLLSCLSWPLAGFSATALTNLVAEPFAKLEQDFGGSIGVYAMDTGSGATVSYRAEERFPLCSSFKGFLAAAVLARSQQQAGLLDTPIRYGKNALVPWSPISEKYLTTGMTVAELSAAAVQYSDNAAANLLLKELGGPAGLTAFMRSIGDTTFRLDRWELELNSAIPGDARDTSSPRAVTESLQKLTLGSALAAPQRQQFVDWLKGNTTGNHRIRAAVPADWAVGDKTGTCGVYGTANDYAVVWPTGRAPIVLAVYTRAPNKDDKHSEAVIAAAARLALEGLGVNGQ
# Assay: Inhibition of Klebsiella pneumoniae KP1004 KPC-2 assessed as minimum concentration of compound needed to reduce the MIC of aztreonam to 4 ug/ml
row,Compound,MEC [µg/mL]
1,O=C(O)c1cccc2c1OB(O)[C@@H](OC1CNC1)C2,> 20
2,O=C(O)c1c(F)ccc2c1OB(O)CC2,0.16
3,NC(=O)CS[C@H]1Cc2cccc(C(=O)O)c2OB1O,5
4,O=C(O)c1nccc2c1OB(O)CC2,0.16

# Other lines, results leading:
row,MEC [µg/mL],Compound
1,20,COCCOc1ccc2c(c1C(=O)O)OB(O)[C@@H](Sc1nncs1)C2
2,20,CSCCOc1ccc2c(c1C(=O)O)OB(O)[C@@H](Sc1nncs1)C2
3,> 20,O=C(O)c1c(OCC2CC2)ccc2c1OB(O)[C@@H](Sc1nncs1)C2
4,20,O=C(O)c1c(OCc2nncs2)ccc2c1OB(O)[C@@H](Sc1nncs1)C2

# System: Enterobacter cloacae
# Assay: Inhibition of Enterobacter cloacae ECL1002 AmpC assessed as minimum concentration of compound needed to reduce the MIC of aztreonam to 4 ug/ml
row,Compound,MEC [µg/mL]
1,O=C(O)c1cccc2c1OB(O)[C@@H](OC1CNC1)C2,2.5
2,O=C(O)c1c(F)ccc2c1OB(O)CC2,0.16
3,NC(=O)CS[C@H]1Cc2cccc(C(=O)O)c2OB1O,> 10
4,O=C(O)c1nccc2c1OB(O)CC2,1.25

# Further lines, results first:
row,MEC [µg/mL],Compound
1,> 20,COCCOc1ccc2c(c1C(=O)O)OB(O)[C@@H](Sc1nncs1)C2
2,> 20,CSCCOc1ccc2c(c1C(=O)O)OB(O)[C@@H](Sc1nncs1)C2
3,> 20,O=C(O)c1c(OCC2CC2)ccc2c1OB(O)[C@@H](Sc1nncs1)C2
4,> 20,O=C(O)c1c(OCc2nncs2)ccc2c1OB(O)[C@@H](Sc1nncs1)C2

# System: Klebsiella pneumoniae
# Assay: Inhibition of Klebsiella pneumoniae KP1081 NDM-1 assessed as minimum concentration of compound required to reduce the MIC of biapenem to 1 ug/ml
row,Compound,MEC [µg/mL]
1,O=C(O)c1cccc2c1OB(O)[C@@H](OC1CNC1)C2,0.6
2,O=C(O)c1c(F)ccc2c1OB(O)CC2,0.6
3,NC(=O)CS[C@H]1Cc2cccc(C(=O)O)c2OB1O,0.6
4,O=C(O)c1nccc2c1OB(O)CC2,1.25

# Second part, the molecule after the results:
row,MEC [µg/mL],Compound
1,0.6,COCCOc1ccc2c(c1C(=O)O)OB(O)[C@@H](Sc1nncs1)C2
2,2.5,CSCCOc1ccc2c(c1C(=O)O)OB(O)[C@@H](Sc1nncs1)C2
3,1.25,O=C(O)c1c(OCC2CC2)ccc2c1OB(O)[C@@H](Sc1nncs1)C2
4,2.5,O=C(O)c1c(OCc2nncs2)ccc2c1OB(O)[C@@H](Sc1nncs1)C2

# System: Klebsiella pneumoniae
# Assay: Inhibition of Klebsiella pneumoniae KP1054 VIM-1 assessed as minimum concentration of compound required to reduce the MIC of biapenem to 1 ug/ml
row,Compound,MEC [µg/mL]
1,O=C(O)c1cccc2c1OB(O)[C@@H](OC1CNC1)C2,0.6
2,O=C(O)c1c(F)ccc2c1OB(O)CC2,5
3,NC(=O)CS[C@H]1Cc2cccc(C(=O)O)c2OB1O,2.5
4,O=C(O)c1nccc2c1OB(O)CC2,20

# Now from value to molecule:
row,MEC [µg/mL],Compound
1,0.16,COCCOc1ccc2c(c1C(=O)O)OB(O)[C@@H](Sc1nncs1)C2
2,1.25,CSCCOc1ccc2c(c1C(=O)O)OB(O)[C@@H](Sc1nncs1)C2
3,0.16,O=C(O)c1c(OCC2CC2)ccc2c1OB(O)[C@@H](Sc1nncs1)C2
4,0.3,O=C(O)c1c(OCc2nncs2)ccc2c1OB(O)[C@@H](Sc1nncs1)C2

# System: Pseudomonas aeruginosa
# Assay: Inhibition of Pseudomonas aeruginosa PAM 2035 AmpC assessed as minimum concentration of compound needed to reduce the MIC of aztreonam to 4 ug/ml
row,Compound,MEC [µg/mL]
1,O=C(O)c1c(F)ccc2c1OB(O)CC2,0.6
2,O=C(O)c1nccc2c1OB(O)CC2,0.3

# Now from value to molecule:
row,MEC [µg/mL],Compound
1,> 20,COCCOc1ccc2c(c1C(=O)O)OB(O)[C@@H](Sc1nncs1)C2
2,10,CSCCOc1ccc2c(c1C(=O)O)OB(O)[C@@H](Sc1nncs1)C2
3,20,O=C(O)c1c(OCC2CC2)ccc2c1OB(O)[C@@H](Sc1nncs1)C2
4,> 20,O=C(O)c1c(OCc2nncs2)ccc2c1OB(O)[C@@H](Sc1nncs1)C2

# System: Klebsiella pneumoniae
# Assay: Inhibition of Klebsiella pneumoniae KP1160 IMP-26 assessed as minimum concentration of compound needed to reduce the MIC of meropenem to 1 ug/ml
row,Compound,MEC [µg/mL]
1,O=C(O)c1c(F)ccc2c1OB(O)CC2,> 20
2,O=C(O)c1nccc2c1OB(O)CC2,> 20

# Further lines, results first:
row,MEC [µg/mL],Compound
1,1.25,COCCOc1ccc2c(c1C(=O)O)OB(O)[C@@H](Sc1nncs1)C2
2,0.6,CSCCOc1ccc2c(c1C(=O)O)OB(O)[C@@H](Sc1nncs1)C2
3,0.3,O=C(O)c1c(OCC2CC2)ccc2c1OB(O)[C@@H](Sc1nncs1)C2
4,2.5,O=C(O)c1c(OCc2nncs2)ccc2c1OB(O)[C@@H](Sc1nncs1)C2

# System: Escherichia coli
# Assay: Inhibition of Escherichia coli ECM6625 SHV-5 assessed as minimum concentration of compound needed to reduce the MIC of aztreonam to 4 ug/ml
row,MEC [µg/mL],Compound
1,0.6,O=C(O)c1c(F)ccc2c1OB(O)CC2
2,5,O=C(O)c1nccc2c1OB(O)CC2

# System: Escherichia coli
# Assay: Inhibition of Escherichia coli ECM6619 TEM-10 assessed as minimum concentration of compound needed to reduce the MIC of aztreonam to 4 ug/ml
row,MEC [µg/mL],Compound
1,0.08,O=C(O)c1c(F)ccc2c1OB(O)CC2
2,0.08,O=C(O)c1nccc2c1OB(O)CC2

# System: Acinetobacter baumannii
# Assay: Inhibition of Acinetobacter baumannii AB1053 OXA-72 assessed as minimum concentration of compound needed to reduce the MIC of meropenem to 8 ug/ml
row,MEC [µg/mL],Compound
1,2.5,O=C(O)c1c(F)ccc2c1OB(O)CC2
2,1.25,O=C(O)c1nccc2c1OB(O)CC2

# Biological target: Beta-lactamase OXA-23 (Acinetobacter baumannii) (UniProt Q9L4P2)
# Sequence (Q9L4P2 whole entry): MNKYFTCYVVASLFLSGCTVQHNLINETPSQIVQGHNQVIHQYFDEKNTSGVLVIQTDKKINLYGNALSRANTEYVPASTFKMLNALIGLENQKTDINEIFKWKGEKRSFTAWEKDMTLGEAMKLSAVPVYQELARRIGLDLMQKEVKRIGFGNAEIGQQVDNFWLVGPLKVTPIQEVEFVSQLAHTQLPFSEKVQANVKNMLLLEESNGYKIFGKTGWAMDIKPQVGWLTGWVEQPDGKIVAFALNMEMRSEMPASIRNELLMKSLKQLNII
# Assay: Inhibition of Acinetobacter baumannii AB1054 OXA-23 assessed as minimum concentration of compound needed to reduce the MIC of meropenem to 8 ug/ml
row,MEC [µg/mL],Compound
1,2.5,O=C(O)c1c(F)ccc2c1OB(O)CC2
2,2.5,O=C(O)c1nccc2c1OB(O)CC2
